Data as given in PMC5876303, “Discovery of C-3 Tethered 2-oxo-benzo[1,4]oxazines as Potent Antioxidants: Bio-Inspired Based Design, Synthesis, Biological Evaluation, Cytotoxic, and in Silico Molecular Docking Studies” (Frontiers in Chemistry, 2018).
“Also recorded” adds a separate entry of the source.

Columns and labels:
[1] = DPPH radical scavenging antioxidant assay; assay type: biochemical; details: Table 1; mean ± SD, n = 3; 517 nm after 20 min
Procedure: In DPPH radical scavenging method the plant extract (0.75 mL) at different concentrations ranging from 10 to 100 μg mL^−1 was mixed with 1.5 mL of a DPPH methanolic solution (20 mg L^−1). Pure methanol was taken as control and ascorbic acid (vitamin C), vitamins A and E were used as a reference compounds. The absorbance was measured at 517 nm after 20 min of reaction. The % of DPPH decolouration of the sample was calculated according to the formula (Sharma and Bhat, [2009]).
Decolouration % = [1−(Abs SAMPLE/Abs CONTROL)]×100
The decolouration was plotted against the sample extract concentration and a logarithmic regression curve was established in order to calculate the IC50. The results are expressed as antiradical efficiency (AE), which is 1000-fold inverse of the IC50 value AE=1000/ IC50.

[2] = Ferric reducing antioxidant power (FRAP) assay; assay type: biochemical; details: for FRAP assay (C0.5FRAP): mean ± SD, n = 3, concentration equivalent to FeSO4 at 0.5 mmol/L, 37°C, 30 min, 593 nm; for FRAP potency compared with standard reference BHT: in words, BHT C0.5FRAP = 546.0 ± 13.6 μM
Procedure: The FRAP reagent was prepared by the addition of freshly prepared 20.0 mM FeCl3.6H2O solution, 10.0 mM of […] (TPTZ) solution and 300 mM sodium acetate buffer (pH 3.6) in a ratio of 1:1:10 (v/v/v). After that, Sample (our synthesized 2-oxo-2-phenylethylidenes-linked 2-oxo-benzo[1,4]oxazines 20a-ab) was added to 3 ml of freshly prepared FRAP reagent and this reaction mixture was incubated at 37°C temperature for 30 min. and the absorbance was measured at 593 nm. It is also noted that, a freshly prepared solution of FeSO4 was used for calibration of standard curve. The FRAP antioxidant capability were evaluated in terms of C0.5FRAP (the antioxidant capability of samples related to their concentration, which is equivalent to that of FeSO4 at 0.5 mmol/L) (Benzie and Strain, [1996]).
The FRAP assay was deliberated using the method as illustrated by Benzie and Strain (Benzie and Strain, [1996]). […] The reducing nature of an antioxidant depends on their property to donate a hydrogen atom for the breaking of the free radical chain, which is responsible for oxidative stress etc.

Row | SMILES | DPPH assay IC50 [1] [µg/mL] | melting point [°C] | FRAP assay (C0.5FRAP) [2] [µM] | FRAP potency compared with standard reference BHT [2]
1 | O=C1O[C@H]([C@@H](O)CO)C(O)=C1O [Ascorbic acid, reference compound] | 4.57 | – | – | –
2 | Cc1cc(C(C)(C)C)c(O)c(C(C)(C)C)c1 [BHT, reference compound] | – | – | 546.0 ± 13.6 | –
3 | O=C1Oc2ccc(Cl)cc2N/C1=C\C(=O)c1ccccc1 [Compound 20c, (Z)-6-chloro-3-(2-oxo-2-phenylethylidene)-3,4-dihydro-2H-benzo[b][1,4]oxazin-2-one] | 28.8 ± 0.6 | 185 to 187 | 467.8 ± 22.4 | greater potency; also recorded: more potent than standard reference BHT
4 | O=C1Oc2ccc(Cl)cc2N/C1=C\C(=O)c1ccc(Br)cc1 [Compound 20g, (Z)-3-(2-(4-bromophenyl)-2-oxoethylidene)-6-chloro-3,4-dihydro-2H-benzo[b][1,4]oxazin-2-one] | 61.2 ± 1.23 | 175 to 177 | 798.6 ± 32.5 | –
5 | COc1ccc(C(=O)/C=C2\Nc3cc(Cl)ccc3OC2=O)cc1 [Compound 20i, (Z)-6-chloro-3-(2-(4-methoxyphenyl)-2-oxoethylidene)-3,4-dihydro-2H-benzo[b][1,4]oxazin-2-one] | 34.9 ± 0.73 | – | 648.2 ± 29.5 | –
6 | Cc1ccc2c(c1)N/C(=C\C(=O)c1ccc(F)cc1)C(=O)O2 [Compound 20j, (Z)-3-(2-(4-fluorophenyl)-2-oxoethylidene)-6-methyl-3,4-dihydro-2H-benzo[1,4]oxazin-2-one] | 34.4 ± 0.7 | – | 502.6 ± 18.2 | more potent than standard reference BHT
7 | Cc1ccc2c(c1)N/C(=C\C(=O)c1ccc(Cl)cc1Cl)C(=O)O2 [Compound 20k, (Z)-3-[2-(2,4-dichloro-phenyl)-2-oxo-ethylidene]-6-methyl-3,4-dihydro-benzo[1,4]oxazin-2-one] | 43.6 ± 0.92 | 142 to 145 | 652.5 ± 30.6 | –
8 | COc1ccc(C(=O)/C=C2\Nc3cc(C)ccc3OC2=O)cc1 [Compound 20l, (Z)-3-[2-(4-methoxy-phenyl)-2-oxo-ethylidene]-6-methyl-3,4-dihydro-benzo[1,4]oxazin-2-one] | 43.8 ± 0.85 | 180 to 182 | – | –
9 | Cc1cc(Br)c2c(c1)N/C(=C\C(=O)c1ccc(F)cc1)C(=O)O2 [Compound 20n, (Z)-8-bromo-3-(2-(4-fluorophenyl)-2-oxoethylidene)-6-methyl-3,4-dihydro-2H-benzo[b][1,4] oxazin-2-one] | 16.9 ± 0.72 | – | 482.5 ± 35.5 | more potent than standard reference BHT
10 | Cc1cc(Br)c2c(c1)N/C(=C\C(=O)c1ccc(Cl)cc1Cl)C(=O)O2 [Compound 20o, (Z)-8-bromo-3-(2-(2,4-dichlorophenyl)-2-oxoethylidene)-6-methyl-3,4-dihydro-2H-benzo [b][1,4]oxazin-2-one] | 22.5 ± 0.64 | – | 641.6 ± 28.7 | –
11 | O=C1Oc2ccccc2N/C1=C\C(=O)c1ccc([N+](=O)[O-])cc1 [Compound 20s, (Z)-3-(2-(4-nitrophenyl)-2-oxoethylidene)-3,4-dihydro-2H-benzo[b][1,4]oxazin-2-one] | 21.3 ± 0.28 | 207 to 209 | 618.4 ± 23.9 | less active
12 | O=C1Oc2ccc([N+](=O)[O-])cc2N/C1=C\C(=O)c1ccc(F)cc1 [Compound 20u, (Z)-3-(2-(4-fluorophenyl)-2-oxoethylidene)-6-nitro-3,4-dihydro-2H-benzo[b][1,4]oxazin-2-one] | 32.1 ± 0.52 | > 250 | 424.5 ± 19.7 | more potent than standard reference BHT
13 | O=C1Oc2cc([N+](=O)[O-])ccc2N/C1=C\C(=O)c1ccccc1 [Compound 20w, (Z)-7-nitro-3-(2-oxo-2-phenylethylidene)-3,4-dihydro-2H-benzo[b][1,4]oxazin-2-one] | 12.53 ± 0.09 | 240 to 242 | 597.4 ± 26.4 | less active than BHT
14 | O=C1Oc2cc([N+](=O)[O-])ccc2N/C1=C\C(=O)c1ccc(Cl)cc1 [Compound 20y, (Z)-3-(2-(4-chlorophenyl)-2-oxoethylidene)-7-nitro-3,4-dihydro-2H-benzo[b][1,4]oxazin-2-one] | 19.8 ± 0.35 | 205 to 207 | 708.2 ± 27.1 | –

Further lines, with some results ahead:

Row | DPPH assay IC50 [1] [µg/mL] | melting point [°C] | SMILES | FRAP assay (C0.5FRAP) [2] [µM] | FRAP potency compared with standard reference BHT [2]
15 | 10.2 ± 0.08 | – | O=C1Oc2ccccc2N/C1=C\C(=O)c1ccccc1 [Compound 20a, (Z)-3-(2-oxo-2-phenylethylidene)-3,4-dihydro-2H-benzo[b][1,4]oxazin-2-one] | 611.5 ± 23.2 | less active than BHT
16 | 28.37 ± 0.16 | 230 to 232 | O=C1Oc2cc([N+](=O)[O-])ccc2N/C1=C\C(=O)c1ccc(Br)cc1 [Compound 20aa, (Z)-3-(2-(4-bromophenyl)-2-oxoethylidene)-7-nitro-3,4-dihydro-2H-benzo[b][1,4]oxazin-2-one] | 518.6 ± 17.6 | more potent than standard reference BHT
17 | 43.6 ± 0.74 | – | COc1ccc(C(=O)/C=C2\Nc3ccc([N+](=O)[O-])cc3OC2=O)cc1 [Compound 20ab, (Z)-3-(2-(4-methoxyphenyl)-2-oxoethylidene)-7-nitro-3,4-dihydro-2H-benzo[b][1,4]oxazin-2-one] | – | –
18 | 45.2 ± 0.92 | 155 to 157 | O=C1Oc2ccc(Cl)cc2N/C1=C\C(=O)c1ccc(F)cc1 [Compound 20d, (Z)-6-chloro-3-(2-(4-fluorophenyl)-2-oxoethylidene)-3,4-dihydro-2H-benzo[b][1,4]oxazin-2-one] | 732.7 ± 41.6 | –
19 | 92.2 ± 1.54 | 182 to 185 | O=C1Oc2ccc(Cl)cc2N/C1=C\C(=O)c1ccc(Cl)cc1 [Compound 20e, (Z)-6-chloro-3-(2-(4-chlorophenyl)-2-oxoethylidene)-3,4-dihydro-2H-benzo[b][1,4]oxazin-2-one] | – | –
20 | 56.6 ± 1.12 | 135 to 137 | O=C1Oc2ccc(Cl)cc2N/C1=C\C(=O)c1ccc(Cl)cc1Cl [Compound 20f, (Z)-6-chloro-3-(2-(2,4-dichlorophenyl)-2-oxoethylidene)-3,4-dihydro-2H-benzo[b][1,4]oxazine-2-One] | – | –
21 | 44.8 ± 0.81 | 160 to 162 | Cc1ccc(C(=O)/C=C2\Nc3cc(Cl)ccc3OC2=O)cc1 [Compound 20h, (Z)-6-chloro-3-(2-oxo-2-(p-tolyl)ethylidene)-3,4-dihydro-2H-benzo[b][1,4]oxazin-2-one] | 821.9 ± 38.7 | –
22 | 24.4 ± 0.46 | – | Cc1cc(Br)c2c(c1)N/C(=C\C(=O)c1ccccc1)C(=O)O2 [Compound 20m, (Z)-8-bromo-6-methyl-3-(2-oxo-2-phenylethylidene)-3,4-dihydro-2H-benzo[b][1,4]oxazin-2-one] | 536.7 ± 21.4 | greater potency; also recorded: more potent than standard reference BHT
23 | 44.3 ± 0.45 | 259 to 260 | Cc1cc(Br)c2c(c1)N/C(=C\C(=O)c1ccc(Br)cc1)C(=O)O2 [Compound 20p, (Z)-8-bromo-3-(2-(4-bromophenyl)-2-oxoethylidene)-6-methyl-3,4-dihydro-2H-benzo[b] [1,4]oxazin-2-one] | >1000 | –
24 | 36.24 ± 0.27 | 219 to 220 | Cc1ccc(C(=O)/C=C2\Nc3cc(C)cc(Br)c3OC2=O)cc1 [Compound 20q, (Z)-8-bromo-6-methyl-3-(2-oxo-2-(p-tolyl)ethylidene)-3,4-dihydro-2H-benzo[b][1,4]oxazin-2-one] | – | –
25 | 12.23 ± 0.05 | – | Cc1ccc2c(c1)N/C(=C\C(=O)c1ccc([N+](=O)[O-])cc1)C(=O)O2 [Compound 20r, (Z)-6-methyl-3-(2-(4-nitrophenyl)-2-oxoethylidene)-3,4-dihydro-2H-benzo[1,4]oxazin-2-one] | 328.6 ± 25.8 | potent activity than BHT; also recorded: more potent than standard reference BHT
26 | 43.6 ± 0.92 | 195 to 197 | COc1ccc(C(=O)/C=C2\Nc3cc([N+](=O)[O-])ccc3OC2=O)cc1 [Compound 20v, (Z)-3-(2-(4-methoxyphenyl)-2-oxoethylidene)-6-nitro-3,4-dihydro-2H-benzo[b][1,4]oxazin-2-one] | – | –
